# Assay results as given in publication PMC6691788, “Design and synthesis of phthalazine-based compounds as potent anticancer agents with potential antiangiogenic activity via VEGFR-2 inhibition” (Journal of Enzyme Inhibition and Medicinal Chemistry, 2019).
# Columns and labels:
# Assay in all cases: NCI 60 cell panel SRB screen
# CCRF-CEM = type: cell-based, human
# HL-60(TB) = type: cell-based; settings: Homo sapiens
# RPMI-8226 = type: cell-based; settings: Homo sapiens
# SR = type: cell-based; settings: Homo sapiens
# HOP-62 = type: cell-based; settings: Homo sapiens
# NCI-H23 = type: cell-based; settings: Homo sapiens
# NCI-H460 = type: cell-based; settings: Homo sapiens
# HCT-116 = type: cell-based; settings: Homo sapiens
# KM12 = type: cell-based; settings: Homo sapiens
# SW-620 = type: cell-based; settings: Homo sapiens
# U251 = type: cell-based; settings: Homo sapiens, U-251
# MALME-3M = type: cell-based; settings: Homo sapiens
# SK-MEL-28 = type: cell-based; settings: Homo sapiens
# SK-MEL-5 = type: cell-based; settings: Homo sapiens
# UACC-257 = type: cell-based; settings: Homo sapiens
# UACC-62 = type: cell-based
# IGROV1 = type: cell-based; settings: Homo sapiens, IGROV-1
# SK-OV-3 = type: cell-based; settings: Homo sapiens
# 786-0 = type: cell-based; settings: Homo sapiens
# ACHN = type: cell-based; settings: Homo sapiens
# SN12C = type: cell-based; settings: Homo sapiens
# PC-3 = type: cell-based; settings: Homo sapiens
# MDA-MB 231/ATCC = type: cell-based; settings: Homo sapiens
# HS 578T = type: cell-based; settings: Homo sapiens
# BT-549 = type: cell-based; settings: Homo sapiens
# [1] = 5 log dose, 48 h, read-out: LC50 (the source's name)
# [2] = single dose 10 μM, read-out: percent cell growth promotion
smiles,measurement,setting,value
"Cc1nnc(Nc2ccc(NC(=O)Nc3ccc(Cl)cc3)cc2)c2ccccc12 [Compound 6e, 1–(4-Chlorophenyl)-3–(4-(4-methylphthalazin-1-ylamino)phenyl)urea]",TGI,CCRF-CEM; 5 log dose,5.99 µM
same,GI50,"CCRF-CEM; Homo sapiens, 5 log dose",2.38 µM
same,CC50,"CCRF-CEM; Homo sapiens, 5 log dose, 48 h, read-out: LC50 (the source's name)",> 100 µM
same,activity at 10 µM,"CCRF-CEM; Homo sapiens, single dose 10 μM, read-out: percent cell growth promotion",11%
same,GI50,HL-60(TB); 5 log dose,2.03 µM
same,IC (TGI),HL-60(TB); 5 log dose,4.18 µM
same,CC50,HL-60(TB); [1],8.64 µM
same,activity at 10 µM,HL-60(TB); [2],-34.8%
same,GI50,"RPMI-8226; RPMI-8226, 5 log dose",2.6 µM
same,IC (TGI),"RPMI-8226; RPMI-8226, 5 log dose",6.48 µM
same,CC50,"RPMI-8226; RPMI-8226, 5 log dose, 48 h, read-out: LC50 (the source's name)",> 100 µM
same,activity at 10 µM,"RPMI-8226; RPMI-8226, single dose 10 μM, read-out: percent cell growth promotion",-11.9%
same,GI50,SR; 5 log dose,2.56 µM
same,IC (TGI),SR; 5 log dose,9.55 µM
same,CC50,SR; [1],> 100 µM
same,activity at 10 µM,SR; [2],-3.51%
same,GI50,"HOP-62; HOP-62, 5 log dose",1.81 µM
same,IC (TGI),"HOP-62; HOP-62, 5 log dose",3.7 µM
same,CC50,"HOP-62; HOP-62, 5 log dose, 48 h, read-out: LC50 (the source's name)",7.56 µM
same,activity at 10 µM,"HOP-62; HOP-62, single dose 10 μM, read-out: percent cell growth promotion",44.2%
same,GI50,"NCI-H23; NCI-H23, 5 log dose",2.38 µM
same,IC (TGI),"NCI-H23; NCI-H23, 5 log dose",6.31 µM
same,CC50,"NCI-H23; NCI-H23, 5 log dose, 48 h, read-out: LC50 (the source's name)",40.9 µM
same,activity at 10 µM,"NCI-H23; NCI-H23, single dose 10 μM, read-out: percent cell growth promotion",48.8%
same,GI50,"NCI-H460; NCI-H460, 5 log dose",3.46 µM
same,IC (TGI),"NCI-H460; NCI-H460, 5 log dose",11.7 µM
same,LC50 (concentration causing 50% cell kill),"NCI-H460; NCI-H460, 5 log dose, 48 h",39.1 µM
same,activity at 10 µM,"NCI-H460; NCI-H460, single dose 10 μM, read-out: percent cell growth promotion",26.1%
same,GI50,"HCT-116; HCT-116, 5 log dose",1.86 µM
same,IC (TGI),"HCT-116; HCT-116, 5 log dose",3.59 µM
same,LC50 (lethal concentration 50%),"HCT-116; HCT-116, 5 log dose, 48 h",6.93 µM
same,activity at 10 µM,"HCT-116; HCT-116, single dose 10 μM, read-out: percent cell growth promotion",7.67%
same,GI50,"KM12; KM12, 5 log dose",1.99 µM
same,IC (TGI),"KM12; KM12, 5 log dose",4.53 µM
same,CC50,"KM12; KM12, 5 log dose, 48 h, read-out: LC50 (the source's name)",11.1 µM
same,activity at 10 µM,"KM12; KM12, single dose 10 μM, read-out: percent cell growth promotion",14.1%
same,GI50,"SW-620; SW-620, 5 log dose",2.15 µM
same,IC (TGI),"SW-620; SW-620, 5 log dose",4.76 µM
same,CC50,"SW-620; SW-620, 5 log dose, 48 h, read-out: LC50 (the source's name)",11.9 µM
same,activity at 10 µM,"SW-620; SW-620, single dose 10 μM, read-out: percent cell growth promotion",20.3%
same,GI50,"U251; U251, 5 log dose",1.98 µM
same,IC (TGI),"U251; U251, 5 log dose",3.75 µM
same,CC50,"U251; U251, 5 log dose, 48 h, read-out: LC50 (the source's name)",7.07 µM
same,activity at 10 µM,"U251; U251, single dose 10 μM, read-out: percent cell growth promotion",5.4%
same,GI50,MALME-3M; Malme-3M,2.17 µM
same,IC (TGI),"MALME-3M; Malme-3M, read-out: TGI",4.79 µM
same,activity at 10 µM,"MALME-3M; Malme-3M, read-out: percent cell growth promotion",-9.9%
same,CC50,"MALME-3M; MALME-3M, 5 log dose, 48 h, read-out: LC50 (the source's name)",20 µM
same,GI50,SK-MEL-28; SK-MEL-28,1.63 µM
same,IC (TGI),"SK-MEL-28; SK-MEL-28, read-out: TGI",3.2 µM
same,activity at 10 µM,"SK-MEL-28; SK-MEL-28, read-out: percent cell growth promotion",-11.9%
same,CC50,"SK-MEL-28; SK-MEL-28, 5 log dose, 48 h, read-out: LC50 (the source's name)",6.29 µM
same,GI50,SK-MEL-5; SK-MEL-5,1.85 µM
same,IC (TGI),"SK-MEL-5; SK-MEL-5, read-out: TGI",3.5 µM
same,activity at 10 µM,"SK-MEL-5; SK-MEL-5, read-out: percent cell growth promotion",52.3%
same,CC50,"SK-MEL-5; SK-MEL-5, 5 log dose, 48 h, read-out: LC50 (the source's name)",6.65 µM
same,GI50,UACC-257; UACC-257,2.39 µM
same,IC (TGI),"UACC-257; UACC-257, read-out: TGI",5.3 µM
same,activity at 10 µM,"UACC-257; UACC-257, read-out: percent cell growth promotion",73.8%
same,GI50,"UACC-62; Homo sapiens, UACC-62",1.75 µM
same,activity at 10 µM,"UACC-62; Homo sapiens, UACC-62, read-out: percent cell growth promotion",-34.4%
same,CC50,"UACC-62; Homo sapiens, UACC-62, 5 log dose, 48 h, read-out: LC50 (the source's name)",7.35 µM
same,TGI,"UACC-62; UACC-62, 5 log dose",3.59 µM
same,GI50,"IGROV1; IGROV1, 5 log dose",3.98 µM
same,IC (TGI),"IGROV1; IGROV1, 5 log dose",19.5 µM
same,CC50,"IGROV1; IGROV1, 5 log dose, 48 h, read-out: LC50 (the source's name)",> 100 µM
same,activity at 10 µM,"IGROV1; IGROV1, single dose 10 μM, read-out: percent cell growth promotion",62%
same,GI50,"SK-OV-3; SK-OV-3, 5 log dose",2.61 µM
same,IC (TGI),"SK-OV-3; SK-OV-3, 5 log dose",6.59 µM
same,CC50,"SK-OV-3; SK-OV-3, 5 log dose, 48 h, read-out: LC50 (the source's name)",30.7 µM
same,activity at 10 µM,"SK-OV-3; SK-OV-3, single dose 10 μM, read-out: percent cell growth promotion",66.4%
same,GI50,"786-0; 786-0, 5 log dose",1.71 µM
same,IC (TGI),"786-0; 786-0, 5 log dose",3.34 µM
same,CC50,"786-0; 786-0, 5 log dose, 48 h, read-out: LC50 (the source's name)",6.55 µM
same,activity at 10 µM,"786-0; 786-0, single dose 10 μM, read-out: percent cell growth promotion",-27.9%
same,GI50,ACHN; 5 log dose,1.84 µM
same,IC (TGI),ACHN; 5 log dose,3.69 µM
same,CC50,ACHN; [1],7.41 µM
same,activity at 10 µM,ACHN; [2],58.8%
same,GI50,SN12C; 5 log dose,2.86 µM
same,IC (TGI),SN12C; 5 log dose,9.41 µM
same,CC50,SN12C; [1],60.1 µM
same,activity at 10 µM,SN12C; [2],60.1%
same,GI50,"PC-3; PC-3, 5 log dose",3.49 µM
same,IC (TGI),"PC-3; PC-3, 5 log dose",11.9 µM
same,CC50,"PC-3; PC-3, 5 log dose, 48 h, read-out: LC50 (the source's name)",62.7 µM
same,activity at 10 µM,"PC-3; PC-3, single dose 10 μM, read-out: percent cell growth promotion",22.8%
same,GI50,MDA-MB 231/ATCC; MDA-MB-231,2.38 µM
same,IC (TGI),"MDA-MB 231/ATCC; MDA-MB-231, read-out: TGI",5.94 µM
same,activity at 10 µM,"MDA-MB 231/ATCC; MDA-MB-231, read-out: percent cell growth promotion",23.1%
same,CC50,"MDA-MB 231/ATCC; MDA-MB-231, MDA-MDA 231/ATCC, 5 log dose, 48 h, read-out: LC50 (the source's name)",33.9 µM
same,GI50,HS 578T; Hs-578T,2.52 µM
same,IC (TGI),"HS 578T; Hs-578T, read-out: TGI",6.4 µM
same,activity at 10 µM,"HS 578T; Hs-578T, read-out: percent cell growth promotion",3.43%
same,CC50,"HS 578T; HS 578T, 5 log dose, 48 h, read-out: LC50 (the source's name)",> 100 µM
same,GI50,BT-549; BT-549,2.21 µM
same,IC (TGI),"BT-549; BT-549, read-out: TGI",5.55 µM
same,activity at 10 µM,"BT-549; BT-549, read-out: percent cell growth promotion",11.4%
same,CC50,"BT-549; BT-549, 5 log dose, 48 h, read-out: LC50 (the source's name)",66 µM
